Marks after values point to notes of the source that are not given here.
System: male Sprague-Dawley rats
Experiment: EEG/EMG/Tcore/LMA telemetry sleep study 3 (almorexant vs ZOL)
Format: in vivo, rat
Conditions: for REM:NR ratio: 6 h after dosing
Protocol: All rodent electroencephalograph (EEG) studies were performed at SRI International. Three groups of eight male Sprague-Dawley rats (300±25 g; Charles River, Wilmington, MA) were implanted with chronic recording devices (F40-EET, Data Sciences Inc., St Paul, MN) for continuous recordings of EEG, electromyograph (EMG), core body temperature (Tcore), and LMA via telemetry as previously described. Data recording and scoring were performed as previously reported (see also Supplemental Material and Methods). The EEG and EMG data were scored in 10 sec epochs for waking (W), rapid eye movement sleep (REM), and non-REM sleep (NR). Tcore and LMA (counts per minute) were analyzed as hourly means. Data from the EEG studies are reported in hourly means such that the hourly time ZT1 refers to the hour between time points ZT0 and ZT1.
For each of the three separate studies, a repeated measures counter-balanced design was employed in which each rat received five separate dosings. […] All dosings were administered ip in a volume of 2 ml/kg. A minimum of 3 d elapsed between doses. Dosing occurred during the middle of the rats’ normal active period at the start of ZT19 and was typically completed within 10 min. Animals were continuously recorded for 6 h prior to dosing and for 18 h following dosing.

[1] = 6 h Average, almorexant 10 mg/kg ip
[2] = 6 h Total, almorexant 10 mg/kg ip

CNC(=O)[C@@H](c1ccccc1)N1CCc2cc(OC)c(OC)cc2[C@@H]1CCc1ccc(C(F)(F)F)cc1 [almorexant, (2R)-2-[(1S)-6,7-Dimethoxy-1-[2-(4-trifluoromethyl-phenyl)-ethyl]-3,4-dihydro-1H-isoquinolin-2-yl]-N-methyl-2-phenyl-acetamide]
cumulative REM (in words) (30 mg/kg ip, first 2 h): Cumulative REM also increased | cumulative REM (in words) (100 mg/kg ip, 6 h period): Cumulative REM also increased | numbers of W and NR bouts (in words) (100 mg/kg ip, ZT19, ZT20, ZT22-ZT24): increased numbers of W and NR bouts | W bout duration (in words) (100 mg/kg ip, ZT22, vs vehicle): decreased | number of REM bouts (in words) (100 mg/kg ip, ZT22-ZT24): increased | LMA (in words) (100 mg/kg ip, across 6 h, vs vehicle): LMA was decreased | NR latency (in words) (30 and 100 mg/kg ip at ZT19, vs vehicle): reduced NR latency | cumulative NR (in words) (30 and 100 mg/kg ip, 2, 4 and 6 h): increased cumulative NR | NR bout duration (6 h Average, 30 mg/kg ip): 1.25 ±0.09^+ | REM bout duration (6 h Average, 30 mg/kg ip): 1.32 ± 0.10 | W bout duration (6 h Average, 30 mg/kg ip): 2.53 ± 0.41 | NR bout duration (6 h Average, 100 mg/kg ip): 1.20 ± 0.08^+ | REM bout duration (6 h Average, 100 mg/kg ip): 1.20 ± 0.12 | W bout duration (6 h Average, 100 mg/kg ip): 1.59 ± 0.20*^+ | NR bout duration [1]: 1.22 ± 0.08^+ | REM bout duration [1]: 1.11 ± 0.13 | W bout duration [1]: 4.37 ± 1.09 | Number of NR bouts (6 h Total, 30 mg/kg ip): 103.0 ± 9.60*^+ | Number of REM bouts (6 h Total, 30 mg/kg ip): 20.38 ± 3.12^+ | Number of NR bouts (6 h Total, 100 mg/kg ip): 127.0 ± 6.02*^+ | Number of REM bouts (6 h Total, 100 mg/kg ip): 27.75 ± 3.26*^+ | Number of W bouts (6 h Total, 100 mg/kg ip): 109.38 ±7.91*^+ | Number of NR bouts [2]: 82.00 ±9.10 | Number of REM bouts [2]: 18.00 ± 3.80^+ | Number of W bouts [2]: 67.50 ± 8.89 | REM:NR ratio (10 mg/kg ip (almorexant)): 0.19±0.026^+ | REM:NR ratio (30 mg/kg ip): 0.20±0.022^+ | REM:NR ratio (100 mg/kg ip): 0.21±0.021^+ | NR during the subsequent light period (in words) (ZT1 and ZT6, 30 mg/kg ip, vs vehicle): NR increased | NR bout duration (ZT19, 30 mg/kg ip): 1.33 ± 0.14^+ | Number of NR bouts (ZT19, 30 mg/kg ip): 15.00 ± 1.83 | Number of REM bouts (ZT19, 30 mg/kg ip): 2.63 ± 0.50*^+ | Number of W bouts (ZT19, 30 mg/kg ip): 10.38 ± 1.53 | REM bout duration (ZT19, 30 mg/kg ip): 1.52 ± 0.26*^+ | W bout duration (ZT19, 30 mg/kg ip): 4.69 ± 1.87 | NR bout duration (ZT19, 100 mg/kg ip): 1.50 ± 0.14*^+ | Number of NR bouts (ZT19, 100 mg/kg ip): 14.00 ± 1.25 | Number of REM bouts (ZT19, 100 mg/kg ip): 1.25 ± 0.49 | Number of W bouts (ZT19, 100 mg/kg ip): 12.25 ± 1.74 | REM bout duration (ZT19, 100 mg/kg ip): 1.44 ± 0.38*^+ | W bout duration (ZT19, 100 mg/kg ip): 3.31 ± 0.65 | NR bout duration (ZT19, almorexant 10 mg/kg ip): 1.27 ± 0.15^+ | Number of NR bouts (ZT19, almorexant 10 mg/kg ip): 8.63 ± 1.82 | Number of REM bouts (ZT19, almorexant 10 mg/kg ip): 1.75 ± 0.53 | Number of W bouts (ZT19, almorexant 10 mg/kg ip): 6.63 ± 1.50 | REM bout duration (ZT19, almorexant 10 mg/kg ip): 0.76 ± 0.19*^+ | W bout duration (ZT19, almorexant 10 mg/kg ip): 9.90 ± 3.21 | NR bout duration (ZT20, 30 mg/kg ip): 1.34 ± 0.08^+ | Number of NR bouts (ZT20, 30 mg/kg ip): 19.75 ± 2.25 | Number of REM bouts (ZT20, 30 mg/kg ip): 4.38 ± 1.08^+ | Number of W bouts (ZT20, 30 mg/kg ip): 16.38 ± 1.68^+ | REM bout duration (ZT20, 30 mg/kg ip): 1.37 ± 0.05^+ | W bout duration (ZT20, 30 mg/kg ip): 1.96 ± 0.75 | NR bout duration (ZT20, 100 mg/kg ip): 1.37 ± 0.12^+ | Number of NR bouts (ZT20, 100 mg/kg ip): 22.25 ± 2.36 | Number of REM bouts (ZT20, 100 mg/kg ip): 3.00 ± 1.20 | Number of W bouts (ZT20, 100 mg/kg ip): 18.38 ± 1.40*^+ | REM bout duration (ZT20, 100 mg/kg ip): 1.08 ± 0.15^+ | W bout duration (ZT20, 100 mg/kg ip): 1.41 ± 0.13^+ | NR bout duration (ZT20, almorexant 10 mg/kg ip): 1.31 ± 0.09^+ | Number of NR bouts (ZT20, almorexant 10 mg/kg ip): 19.38 ± 2.38 | Number of REM bouts (ZT20, almorexant 10 mg/kg ip): 4.13 ± 0.97^+ | Number of W bouts (ZT20, almorexant 10 mg/kg ip): 14.88 ± 2.05^+ | REM bout duration (ZT20, almorexant 10 mg/kg ip): 1.16 ± 0.17^+ | W bout duration (ZT20, almorexant 10 mg/kg ip): 2.37 ± 0.70 | NR bout duration (ZT21, 30 mg/kg ip): 1.27 ± 0.09^+ | Number of NR bouts (ZT21, 30 mg/kg ip): 20.75 ± 1.39 | Number of REM bouts (ZT21, 30 mg/kg ip): 5.25 ± 1.16^+ | Number of W bouts (ZT21, 30 mg/kg ip): 18.38 ± 1.39^+ | REM bout duration (ZT21, 30 mg/kg ip): 1.26 ± 0.14 | W bout duration (ZT21, 30 mg/kg ip): 1.43 ± 0.30^+ | NR bout duration (ZT21, 100 mg/kg ip): 1.31 ± 0.15^+ | Number of NR bouts (ZT21, 100 mg/kg ip): 23.75 ± 1.47 | Number of REM bouts (ZT21, 100 mg/kg ip): 6.75 ± 1.06^+ | Number of W bouts (ZT21, 100 mg/kg ip): 20.88 ± 2.21^+ | REM bout duration (ZT21, 100 mg/kg ip): 1.28 ± 0.18 | W bout duration (ZT21, 100 mg/kg ip): 0.93 ± 0.15^+ | NR bout duration (ZT21, almorexant 10 mg/kg ip): 1.17 ± 0.16^+ | Number of NR bouts (ZT21, almorexant 10 mg/kg ip): 15.88 ± 2.00 | Number of REM bouts (ZT21, almorexant 10 mg/kg ip): 4.75 ± 1.13^+ | Number of W bouts (ZT21, almorexant 10 mg/kg ip): 13.50 ± 1.73 | REM bout duration (ZT21, almorexant 10 mg/kg ip): 1.40 ± 0.16 | W bout duration (ZT21, almorexant 10 mg/kg ip): 3.03 ± 0.90 | NR bout duration (ZT22, 30 mg/kg ip): 1.04 ± 0.11^+ | Number of NR bouts (ZT22, 30 mg/kg ip): 17.25 ± 2.58 | Number of REM bouts (ZT22, 30 mg/kg ip): 2.88 ± 0.74 | Number of W bouts (ZT22, 30 mg/kg ip): 14.88 ± 1.99 | REM bout duration (ZT22, 30 mg/kg ip): 1.26 ± 0.17 | W bout duration (ZT22, 30 mg/kg ip): 3.07 ± 0.83 | NR bout duration (ZT22, 100 mg/kg ip): 1.12 ± 0.15 | Number of NR bouts (ZT22, 100 mg/kg ip): 23.88 ± 1.34 | Number of REM bouts (ZT22, 100 mg/kg ip): 7.38 ± 1.49*^+ | Number of W bouts (ZT22, 100 mg/kg ip): 20.00 ± 0.89*^+ | REM bout duration (ZT22, 100 mg/kg ip): 1.07 ± 0.18 | W bout duration (ZT22, 100 mg/kg ip): 1.13 ± 0.15^+ | NR bout duration (ZT22, almorexant 10 mg/kg ip): 1.07 ± 0.19^+ | Number of NR bouts (ZT22, almorexant 10 mg/kg ip): 14.38 ± 2.58 | Number of REM bouts (ZT22, almorexant 10 mg/kg ip): 2.88 ± 0.81 | Number of W bouts (ZT22, almorexant 10 mg/kg ip): 13.00 ± 2.92 | REM bout duration (ZT22, almorexant 10 mg/kg ip): 1.05 ± 0.36 | W bout duration (ZT22, almorexant 10 mg/kg ip): 4.74 ± 1.57 | NR bout duration (ZT23, 30 mg/kg ip): 1.03 ± 0.12 | Number of NR bouts (ZT23, 30 mg/kg ip): 16.63 ± 2.88 | Number of REM bouts (ZT23, 30 mg/kg ip): 2.88 ± 0.93 | Number of W bouts (ZT23, 30 mg/kg ip): 15.13 ± 2.71 | REM bout duration (ZT23, 30 mg/kg ip): 0.91 ± 0.19 | W bout duration (ZT23, 30 mg/kg ip): 5.53 ± 3.36 | NR bout duration (ZT23, 100 mg/kg ip): 0.90 ± 0.07 | Number of NR bouts (ZT23, 100 mg/kg ip): 23.13 ± 2.61 | Number of REM bouts (ZT23, 100 mg/kg ip): 4.00 ± 0.82 | Number of W bouts (ZT23, 100 mg/kg ip): 21.00 ± 3.02 | REM bout duration (ZT23, 100 mg/kg ip): 1.16 ± 0.12 | W bout duration (ZT23, 100 mg/kg ip): 2.15 ± 0.68 | NR bout duration (ZT23, almorexant 10 mg/kg ip): 1.11 ± 0.19 | Number of NR bouts (ZT23, almorexant 10 mg/kg ip): 8.00 ± 1.68 | Number of REM bouts (ZT23, almorexant 10 mg/kg ip): 1.25 ± 0.65 | Number of W bouts (ZT23, almorexant 10 mg/kg ip): 6.63 ± 1.88 | REM bout duration (ZT23, almorexant 10 mg/kg ip): 0.61 ± 0.17 | W bout duration (ZT23, almorexant 10 mg/kg ip): 12.59 ± 3.87 | NR bout duration (ZT24, 30 mg/kg ip): 1.50 ± 0.24 | Number of NR bouts (ZT24, 30 mg/kg ip): 19.88 ± 2.63 | Number of REM bouts (ZT24, 30 mg/kg ip): 2.38 ± 0.98 | Number of W bouts (ZT24, 30 mg/kg ip): 12.00 ± 2.70 | REM bout duration (ZT24, 30 mg/kg ip): 0.98 ± 0.15 | W bout duration (ZT24, 30 mg/kg ip): 4.32 ± 1.06 | NR bout duration (ZT24, 100 mg/kg ip): 1.14 ± 0.08 | Number of NR bouts (ZT24, 100 mg/kg ip): 19.88 ± 1.14 | Number of REM bouts (ZT24, 100 mg/kg ip): 5.25 ± 1.08*^+ | Number of W bouts (ZT24, 100 mg/kg ip): 15.88 ± 1.14 | REM bout duration (ZT24, 100 mg/kg ip): 1.16 ± 0.14^+ | W bout duration (ZT24, 100 mg/kg ip): 1.92 ± 0.34 | NR bout duration (ZT24, almorexant 10 mg/kg ip): 1.14 ± 0.14 | Number of NR bouts (ZT24, almorexant 10 mg/kg ip): 15.25 ± 2.30 | Number of REM bouts (ZT24, almorexant 10 mg/kg ip): 3.25 ± 0.94 | Number of W bouts (ZT24, almorexant 10 mg/kg ip): 12.00 ± 2.10 | REM bout duration (ZT24, almorexant 10 mg/kg ip): 1.02 ± 0.21^+ | W bout duration (ZT24, almorexant 10 mg/kg ip): 4.00 ± 1.17 | REM bout duration (in words) (first hour after treatment): significantly increased REM bout duration | Tcore (in words) (high concentration tested, across 6 h): decreased Tcore | REM bouts compared to vehicle (highest dose (100 mg/kg), latter half of the dark period): 2 to 3 fold | latency to REM sleep (in words) (only 30 mg/kg ip at ZT19, vs vehicle): decreased latency to REM sleep

Source: article PMC3388080 (PLoS ONE, 2012)
